Assay results reported in paper PMC7473772 (eLife, 2020).
Several values for one entry are separate records, joined by “and”; a condition that tells them apart may be missing. Identical values can stand only once. Like-named read-outs stand apart in the source and are kept apart here.

What was measured:
[1] = system: tbaqp2/tbaqp3 null cells expressing TbAQP3^W102I/R256L/Y250L; format: cell-based, Trypanosoma brucei brucei
[2] = system: tbaqp2/tbaqp3 null cells expressing TbAQP2^L264R; format: cell-based, Trypanosoma brucei brucei
[3] = system: tbaqp2/tbaqp3 null cells expressing TbAQP2 L118W; test: microbe, parasite or virus in culture; format: cell-based, Trypanosoma brucei brucei
[4] = system: tbaqp2/tbaqp3 null cells expressing TbAQP2 L118M; test: microbe, parasite or virus in culture; format: cell-based, Trypanosoma brucei brucei
[5] = system: tbaqp2/tbaqp3 null cells expressing TbAQP2^S131P/S263A; format: cell-based, Trypanosoma brucei brucei
[6] = system: tbaqp2/tbaqp3 null cells expressing TbAQP2 L84W; test: microbe, parasite or virus in culture; format: cell-based, Trypanosoma brucei brucei
[7] = system: tbaqp2/tbaqp3 null cells expressing TbAQP2^I190T; format: cell-based, Trypanosoma brucei brucei
[8] = system: tbaqp2/tbaqp3 null cells expressing TbAQP2^W192G; format: cell-based, Trypanosoma brucei brucei
[9] = system: tbaqp2/tbaqp3 null cells expressing TbAQP3^W102I/R256L; format: cell-based, Trypanosoma brucei brucei
[10] = system: tbaqp2/tbaqp3 null cells expressing TbAQP2 L218W; test: microbe, parasite or virus in culture; format: cell-based, Trypanosoma brucei brucei
[11] = system: tbaqp2/tbaqp3 null cells expressing TbAQP2WT; test: microbe, parasite or virus in culture; format: cell-based, Trypanosoma brucei brucei; conditions: for EC50: Trypanosoma brucei
[12] = system: tbaqp2/tbaqp3 null cells expressing TbAQP2^I110W; format: cell-based, Trypanosoma brucei brucei
[13] = system: tbaqp2/tbaqp3 null cells expressing TbAQP3; format: cell-based, Trypanosoma brucei brucei
[14] = system: tbaqp2/tbaqp3 null cells expressing TbAQP2 L84M; test: microbe, parasite or virus in culture; format: cell-based, Trypanosoma brucei brucei
[15] = system: tbaqp2/tbaqp3 null cells expressing TbAQP2^I190T/W192G; format: cell-based, Trypanosoma brucei brucei
[16] = system: tbaqp2/tbaqp3 null cells expressing TbAQP2^L258Y; format: cell-based, Trypanosoma brucei brucei
tbaqp2/tbaqp3 null cells = test: microbe, parasite or virus in culture; format: cell-based, Trypanosoma brucei brucei
[17] = system: tbaqp2/tbaqp3 null cells expressing TbAQP2 L218M; test: microbe, parasite or virus in culture; format: cell-based, Trypanosoma brucei brucei
T. b. brucei 2T1 = test: Drug sensitivity assay (resazurin); format: cell-based; conditions: Trypanosoma brucei, 48 h drug + 24 h resazurin, read-out: EC50 control 2T1 AVG
Method: The tbaqp2/tbaqp3 null cells ([Baker et al., 2012]) and tbaqp1-2-3 null cells ([Jeacock et al., 2017]) (both obtained from David Horn, University of Dundee, UK) are derived from the 2T1 strain of T. b. brucei ([Alsford and Horn, 2008]). The CRK12 RNAi cell line^28 was obtained from Dr Tansy Hammarton (University of Glasgow, UK) and is also based on the 2T1 cell line; RNAi expression was induced with 1 µg/ml tetracycline in the medium. All experiments were performed with bloodstream form trypanosomes grown in vitro in HMI-11 medium as described ([Wallace et al., 2002]) at 37°C in a 5% CO2 atmosphere. Cultures were routinely maintained in 10 ml of this medium, being seeded at 5 × 10^4 cells/ml and passed to fresh medium at reaching approximately 3 × 10^6 cells/ml after 48 hr. For transport experiments 150 or 200 ml of culture was seeded at the same density in large flasks and incubated until the culture reached late-log phase.
Drug sensitivity assays for T. b. brucei bloodstream forms used the cell viability dye resazurin (Sigma) and were performed exactly as described ([Wallace et al., 2002]; [Bridges et al., 2007]) in 96-well plates with doubling dilutions of test compound, starting at 100 µM, over 2 rows of the plate (23 dilutions plus no-drug control). Incubation time with test compound was 48 hr (37°C/5% CO2), followed by an additional 24 hr in the presence of the dye.

TbAQP2/HAPT1 = TbAQP2/HAPT1 (Trypanosoma brucei brucei, UniProt Q6ZXT3); test: cell-based; format: cell-based
Chain of TbAQP2/HAPT1 (Q6ZXT3 whole entry): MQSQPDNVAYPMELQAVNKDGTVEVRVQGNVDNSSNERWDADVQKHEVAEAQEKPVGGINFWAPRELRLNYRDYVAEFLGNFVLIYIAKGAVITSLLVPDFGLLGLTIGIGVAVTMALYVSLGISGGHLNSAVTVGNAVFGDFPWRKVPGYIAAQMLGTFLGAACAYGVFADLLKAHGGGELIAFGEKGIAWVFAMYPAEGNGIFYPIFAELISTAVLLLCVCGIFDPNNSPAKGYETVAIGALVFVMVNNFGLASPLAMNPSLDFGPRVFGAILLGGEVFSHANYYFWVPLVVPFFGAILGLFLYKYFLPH

tbaqp2 null (AQP2-KO) = test: Drug sensitivity assay (resazurin); format: cell-based; conditions: Trypanosoma brucei, read-out: EC50 AQP2-KO AVG, AQP2-KO / tbaqp2 null; 48 h drug + 24 h resazurin
[18] = system: tbaqp2/tbaqp3 null cells expressing TbAQP2^I110W/L264R; format: cell-based, Trypanosoma brucei brucei
[19] = Trypanosoma brucei, read-out: EC50, MEAN
[20] = Trypanosoma brucei, read-out: EC50, single repeats
[21] = Trypanosoma brucei, read-out: EC50, MEAN (nM)

For `Cl.Cl.NCCS[As](SCCN)c1ccc(Nc2nc(N)nc(N)n2)cc1` [Cymelarsan], the “EC50, percent of AQP2/3 null EC50” value [1] was 159 ± 8%, the “EC50, percent of AQP2/3 null EC50” value [2] was 99.62% and the “EC50 (% of aqp2/aqp3 null), MEAN” value [3] was 92.14 % of aqp2/aqp3 null. The “EC50 (% of aqp2/aqp3 null), single repeats” value [3] was 88.70 % of aqp2/aqp3 null and 124.82 % of aqp2/aqp3 null and 62.91 % of aqp2/aqp3 null, the EC50 ([3]; read-out: EC50, MEAN) was 18.4 nM and the EC50 ([3]; read-out: EC50, single repeats) was 17.7 nM and 24.9 nM and 12.5 nM. The “EC50 (% of aqp2/aqp3 null), single repeats” value [4] was 106.00 % of aqp2/aqp3 null and 109.38 % of aqp2/aqp3 null and 101.17 % of aqp2/aqp3 null and 149.03 % of aqp2/aqp3 null and 147.52 % of aqp2/aqp3 null, the “EC50, MEAN (% KO)” value [4] was 122.62 % KO and the EC50 ([4]; read-out: EC50, MEAN) was 34.3 nM. The EC50 ([4]; read-out: EC50, single repeats) was 34.5 nM and 35.6 nM and 32.9 nM and 24.6 nM and 24.4 nM, the “EC50, percent of AQP2/3 null EC50” value [5] was 58.29% and the “EC50 (% of aqp2/aqp3 null), MEAN” value [6] was 100.47 % of aqp2/aqp3 null. For the same molecule, the “EC50 (% of aqp2/aqp3 null), single repeats” value [6] was 103.60 % of aqp2/aqp3 null and 103.34 % of aqp2/aqp3 null and 94.46 % of aqp2/aqp3 null, the EC50 ([6]; read-out: EC50, MEAN) was 20 nM and the EC50 ([6]; read-out: EC50, single repeats) was 20.6 nM (2×) and 18.8 nM. For the same molecule, the “EC50 as percent of AQP2/3 null EC50, MEAN” value (from here on “EC50 as percent … MEAN”) [7] was 64.67%, the “EC50 as percent … MEAN” value [8] was 42.01% and the “EC50 as percent of AQP2/3 null EC50, single repeats” value (“EC50 as percent … single repeats” for short) [8] was 38.89% and 33.6754% and 48.5349% and 30.3438% and 47.7536% and 38.5508% and 45.4365% and 52.8716%. The “EC50, percent of AQP2/3 null EC50” value [9] was 105 ± 8%, the “EC50 (% of aqp2/aqp3 null), MEAN” value [10] was 94.01 % of aqp2/aqp3 null and the “EC50 (% of aqp2/aqp3 null), single repeats” value [10] was 100.13 % of aqp2/aqp3 null and 113.78 % of aqp2/aqp3 null and 68.13 % of aqp2/aqp3 null. For the same molecule, the EC50 ([10]; read-out: EC50, MEAN) was 18.7 nM, the EC50 ([10]; read-out: EC50, single repeats) was 20 nM and 22.7 nM and 13.6 nM and the “EC50 (% of aqp2/aqp3 null), MEAN” value [11] was 14.85 % of aqp2/aqp3 null. The “EC50, MEAN (% KO)” value [11] was 21.40 % KO, the “EC50, percent of AQP2/3 null EC50” value [11] was 11.82% and 12.84% and 17.72% and 13.38% and the “EC50 as percent … MEAN” value [11] was 12.527% and 12.55%. The “EC50, percent of AQP2/3 null EC50” value [12] was 106.64%, the “EC50, percent of AQP2/3 null EC50” value [13] was 114 ± 5% and the “EC50, MEAN (% KO)” value [14] was 62.94 % KO. For the same molecule, the EC50 ([14]; read-out: EC50, MEAN) was 13.9 nM, the EC50 ([14]; read-out: EC50, single repeats) was 14.7 nM and 14.5 nM and 12.4 nM and 13.7 nM and 10.5 nM and 17.1 nM and the “EC50 as percent … MEAN” value [15] was 95.01%. The “EC50 as percent … single repeats” value [15] was 84.5691% and 96.0784% and 104.69% and 94.6857%, the “EC50, percent of AQP2/3 null EC50” value [16] was 33.16% and the “EC50 (% of aqp2/aqp3 null), MEAN” value (tbaqp2/tbaqp3 null cells) was 100.00 % of aqp2/aqp3 null. For the same molecule, the “EC50 (% of aqp2/aqp3 null), single repeats” value (tbaqp2/tbaqp3 null cells) was 100.09 % of aqp2/aqp3 null and 107.11 % of aqp2/aqp3 null and 92.80 % of aqp2/aqp3 null and 105.96 % of aqp2/aqp3 null and 97.29 % of aqp2/aqp3 null and 96.75 % of aqp2/aqp3 null and 92.36 % of aqp2/aqp3 null and 100.54 % of aqp2/aqp3 null, the “EC50, MEAN (% KO)” value (tbaqp2/tbaqp3 null cells) was 100.00 % KO and the “EC50, percent of AQP2/3 null EC50” value (tbaqp2/tbaqp3 null cells) was 100.00%. The “EC50 as percent … MEAN” value (tbaqp2/tbaqp3 null cells) was 100.00%, the “EC50 as percent … single repeats” value (tbaqp2/tbaqp3 null cells) was 100.0% and the EC50 (tbaqp2/tbaqp3 null cells; read-out: EC50, MEAN) was 19.9 nM. For the same molecule, the “EC50, MEAN (% KO)” value [17] was 58.15 % KO, the EC50 ([17]; read-out: EC50, MEAN) was 11.2 nM and the EC50 ([17]; read-out: EC50, single repeats) was 11.4 nM and 11.3 nM and 10.9 nM and 12.3 nM and 12.4 nM and 15.8 nM.
`N=C(N)c1ccc(/N=N/Nc2ccc(C(=N)N)cc2)cc1` [Diminazene] was tested, and the “EC50, percent of AQP2/3 null EC50” value [2] was 99.35%, the “EC50 (% of aqp2/aqp3 null), MEAN” value [3] was 95.82 % of aqp2/aqp3 null and the “EC50 (% of aqp2/aqp3 null), single repeats” value [3] was 118.42 % of aqp2/aqp3 null and 101.85 % of aqp2/aqp3 null and 67.18 % of aqp2/aqp3 null. For the same molecule, the EC50 [3, 19] was 72.8 nM, the EC50 [3, 20] was 90 nM and the EC50 ([3]; read-out: EC50, single repeats) was 77.4 nM and 51.1 nM. For the same molecule, the EC50 (T. b. brucei 2T1) was 122 nM, the “EC50, MEAN (% KO)” value [4] was 93.77 % KO and the EC50 [4, 21] was 177 nM. For the same molecule, the “EC50, percent of AQP2/3 null EC50” value [5] was 93.48%, the ΔG0 (TbAQP2/HAPT1) was -5.74 kcal/mol and the “δ(ΔG0)” value (TbAQP2/HAPT1) was 4.45 kcal/mol. For the same molecule, the Ki (TbAQP2/HAPT1; HAPT Ki, AVG) was 62500 nM, the Ki (TbAQP2/HAPT1; Ki) was 63000 nM and the “EC50 (% of aqp2/aqp3 null), MEAN” value [6] was 113.28 % of aqp2/aqp3 null. For the same molecule, the “EC50 (% of aqp2/aqp3 null), single repeats” value [6] was 126.86 % of aqp2/aqp3 null and 125.65 % of aqp2/aqp3 null and 87.33 % of aqp2/aqp3 null, the EC50 [6, 19] was 86.1 nM and the EC50 [6, 20] was 96.4 nM. For the same molecule, the EC50 ([6]; read-out: EC50, single repeats) was 95.5 nM and 66.4 nM, the EC50 (tbaqp2 null (AQP2-KO)) was 108 nM and the “EC50 as percent … MEAN” value [18] was 108.15%. For the same molecule, the “EC50 (% of aqp2/aqp3 null), MEAN” value [10] was 38.99 % of aqp2/aqp3 null, the “Sensitisation relative to tbaqp2/tbaqp3 null” value [10] was ~ 2 fold and the EC50 [10, 19] was 29.6 nM. The “EC50 (% of aqp2/aqp3 null), MEAN” value [11] was 97.55 % of aqp2/aqp3 null, the “EC50, MEAN (% KO)” value [11] was 98.90 % KO and the “EC50, percent of AQP2/3 null EC50” value [11] was 96.75% and 102.22% and 102.99% and 78.60%. For the same molecule, the “EC50 as percent … MEAN” value [11] was 102.99%, the EC50 ([11]; read-out: EC50, MEAN) was 74.2 nM and the EC50 ([11]; read-out: EC50, MEAN (nM)) was 149 nM. The “EC50, percent of AQP2/3 null EC50” value [12] was 114.65%, the “EC50, MEAN (% KO)” value [14] was 99.61 % KO and the EC50 [14, 21] was 145 nM. For the same molecule, the “EC50, percent of AQP2/3 null EC50” value [16] was 105.69%, the “EC50 (% of aqp2/aqp3 null), MEAN” value (tbaqp2/tbaqp3 null cells) was 100.00 % of aqp2/aqp3 null and the “EC50, MEAN (% KO)” value (tbaqp2/tbaqp3 null cells) was 100.00 % KO. For the same molecule, the “EC50, percent of AQP2/3 null EC50” value (tbaqp2/tbaqp3 null cells) was 100.00%, the “EC50 as percent … MEAN” value (tbaqp2/tbaqp3 null cells) was 100.00% and the “EC50 as percent … single repeats” value (tbaqp2/tbaqp3 null cells) was 100%. For the same molecule, the EC50 (tbaqp2/tbaqp3 null cells; [19]) was 76 nM, the EC50 (tbaqp2/tbaqp3 null cells; [21]) was 175 nM and the “EC50, MEAN (% KO)” value [17] was 48.28 % KO. For the same molecule, the “Sensitisation relative to tbaqp2/tbaqp3 null” value [17] was ~ 2 fold, the EC50 [17, 21] was 54 nM and the EC50 [17, 20] was 38.7 nM. For the same molecule, the EC50 ([17]; read-out: EC50, single repeats) was 61.5 nM and 61.9 nM and 39.1 nM and 34.8 nM and 41.6 nM.
